# US20070099907A1 (priority 2002, published 2007)
# “Also recorded” adds a separate entry of the source.
# What was measured:
# [1] = tested on: arthritic patients; conditions: compared to patients treated with naproxen; cited from earlier work
# [2] = tested on: endothelial COX-2 expression; conditions: cited from earlier work
# [3] = tested on: activated partial-thromboplastin time (APTT); test: Activated partial thromboplastin time after unfractionated heparin in the pilot study; assay type: in vivo, human; conditions: for Activated Partial Thromboplastin Time, Mean ± SD: patients treated with unfractionated heparin; for Activated Partial Thromboplastin Time, Median: unfractionated heparin
# Experimental: (§1) Patients were recruited from the Centro de Salud and the Centro Modelo de Cardiologia, Tucuman, Argentina. Inclusion criteria were chest pain within the previous 24 hours associated with ST-segment depression (>0.5 mm) and either ECG evidence of ischemia or previously documented coronary artery disease. Exclusion criteria were persistent ST-segment elevation and increased levels of the MB isoenzyme of creatine kinase (CK-MB) consistent with acute myocardial infarction, revascularization procedures within the preceding 6 months, malignancy, pregnancy, renal or hepatic diseases, use of anticoagulant therapy, treatment with anti-inflammatory drugs, or contraindication of the study drugs. […] Both groups received aspirin for 30 days. The dose range was 100 to 300 mg per day at the discretion of the treating physician. CK-MB levels were measured before randomization. Additional assays were performed after an episode of chest pain to confirm the diagnosis of acute MI. All patients received subcutaneous LMWH (either nadroparin 87 IU/kg BID or enoxaparin 1 mg/kg BID) or intravenous UFH given as an initial bolus of 5000 IU followed by continuous infusion at 1000 IU per hour for 7 days or until discharge from the hospital. The activated partial-thromboplastin time (APTT) was used to assess the degree of anticoagulation in patients receiving intravenous unfractionated heparin. Patients were tested every 12 hours on the first day and every 24 hours subsequently. The APTT was maintained in the range 45 to 87 seconds (normal value, 30±5 seconds).
# The nature of the quantitative variables distribution was assessed by the Shapiro-Wilk test. Differences between the 2 treatment groups were analyzed by the Student's t test (independent samples) or the Mann-Whitney test, according to the nature of the distribution. Differences in terms of activated partial thromboplastin time after unfractionated heparin were assessed by a 2-way ANOVA model, with repeated measures in one of the factors (Student Newman-Keuls post-hoc test). Univariate associations between qualitative variables were assessed by X^2 (Yates corrected) and Spearman rank-order correlations.
# [4] = tested on: patients with acute coronary syndromes without ST-segment elevation; test: Safety observations in the pilot study; assay type: in vivo, human; conditions: throughout the course of the study; meloxicam 15 mg/day + aspirin + heparin
# Experimental: as §1, with “An open, randomized, prospective, single-blind pilot study of the use of meloxicam in ACS patients without ST-segment elevation was performed. Patients” for “Patients”, “The activated partial-thromboplastin time (APTT) was used to assess the degree of anticoagulation in patients receiving intravenous unfractionated heparin. Patients were tested every 12 hours on the first day and every 24 hours subsequently. The APTT was maintained in the range 45 to 87 seconds (normal value, 30±5 seconds).” left out
# [5] = after bolus intravenous dose of 15 mg meloxicam; cited from earlier work
# [6] = tested on: patients with acute coronary syndromes without ST-segment elevation; test: Open, randomized, single-blind pilot study of meloxicam added to aspirin and heparin: cardiovascular events; assay type: in vivo, human
# Experimental: as §1
# […] An additional secondary composite variable was determined: MI, death, and all revascularization procedures (percutaneous transluminal coronary angioplasty [PTCA] or coronary artery graft surgery [CABG]). Each component of the primary and secondary outcome variable was also recorded separately. […] Cardiac catheterization was performed at the discretion of treating physicians, but only urgent PTCA and CABG, usually after recurrent angina or MI, were considered as end points. Revascularization procedures were indicated after recurrence of chest pain refractory to medical treatment. During CCU stay and after discharge, all patients were examined for clinical events by an investigator who was unaware of treatment allocation. Patients were also instructed to report any events to study personnel immediately. The diagnostic criteria for MI were chest pain lasting 20 minutes or more with ECG changes and an at least 2-fold elevation of CK-MB. Recurrent angina was defined as recurrence of chest pain with ECG changes refractory to medical therapy (aspirin, heparin, nitroglycerin, and β-blockers).
# Relative risks (RRs) and their 95% CI were obtained. The RR reduction (RRR) is defined as 1 minus RR and expressed as percentage. The absolute risk reduction (ARR) was calculated as the difference between the risk in control patients minus the risk in treated patients and expressed as percentage. A multiple logistic regression model was used to determine the predictive value of the variables associated with events at day 90 in the previous univariate analysis. The software used were CSS/Statistics 3.1 (StatSoft Corp) and EPI INFO 6 v.6.04, 1996.
# [7] = tested on: patients who had an ACS; conditions: cited from earlier work
# [8] = tested on: postischemic cardiac dysfunction; conditions: cited from earlier work
# [9] = 90-day follow-up, cumulative, n=60 per group
# [10] = 90-day follow-up, meloxicam group vs control
# [11] = 90-day follow-up, meloxicam group vs control, listed as meloxicam
# [12] = CCU period, meloxicam group vs control
# [13] = CCU period, meloxicam group vs control, listed as meloxicam
# [14] = CCU period, n=60 per group, listed as meloxicam
compound,measurement,setting,value
CS(=O)(=O)c1ccc(C2=C(c3ccccc3)C(=O)OC2)cc1 [rofecoxib],risk of heart attack,[1],five-fold higher risk of heart attack
CC(=O)Oc1cc(C(F)(F)F)ccc1C(=O)O [triflusal],inhibitory activity against endothelial COX-2 expression,[2],very little inhibitory activity
"Cc1cnc(NC(=O)C2=C(O)c3ccccc3S(=O)(=O)N2C)s1 [Meloxicam, 4-hydroxy-2-methyl-N-(5-methyl-2-thiazolyl)-2H-1,2-benzothiazine-3-carboxamide-1,1-dioxide]","Activated Partial Thromboplastin Time, Mean ± SD",[3]; Day 1,55.8 ± 26.4 s
same,"Activated Partial Thromboplastin Time, Median",[3]; Day 1,48 s
same,"Activated Partial Thromboplastin Time, Mean ± SD",[3]; Day 2,69.6 ± 19.9 s
same,"Activated Partial Thromboplastin Time, Median",[3]; Day 2,62 s
same,"Activated Partial Thromboplastin Time, Mean ± SD",[3]; Day 3,89.9 ± 24.4 s
same,"Activated Partial Thromboplastin Time, Median",[3]; Day 3,86 s
same,"Activated Partial Thromboplastin Time, Mean ± SD","[3]; Day 4, control vs meloxicam P < 0.05",89.3 ± 20.8 s
same,"Activated Partial Thromboplastin Time, Median",[3]; Day 4,84.5 s
same,"adverse complications (bleeding complications, side effects, intolerance)",[4],"No adverse complications; also recorded: No bleeding complications, side effects, or intolerance"
same,Cmax,[5],3000 ng/mL
same,tmax,[5],3 min
same,"MI + death + revascularization, % (secondary composite)",[6]; [9],13.3%
same,"MI + death + revascularization, n (secondary composite)",[6]; [9],8 n
same,"Recurrent angina + MI + vascular death, % (primary composite)",[6]; [9],21.7%
same,"Recurrent angina + MI + vascular death, n (primary composite)",[6]; [9],13 n
same,"Recurrent angina, %",[6]; [9],20.0%
same,"Recurrent angina, %","[6]; 90-day follow-up, cumulative, n=60 per group, listed as meloxicam",20%
same,"ARR %, MI + death + revascularization",[6]; [10],20.0%
same,"ARR %, recurrent angina",[6]; [10],23.3%
same,"ARR %, revascularization",[6]; [10],18.3%
same,"RRR (95% CI), recurrent angina",[6]; [10],53.8 (17-74) %
same,"RRR (95% CI), recurrent angina + MI + vascular death",[6]; [10],55.1 (22-74) %
same,"RRR (95% CI), revascularization",[6]; [10],61.0 (14-82) %
same,"RRR (95% CI), MI + death + revascularization",[6]; [11],60.1%
same,"RRR (95% CI), recurrent angina",[6]; [11],53.8%
same,"RRR (95% CI), recurrent angina + MI + vascular death",[6]; [11],55.1%
same,"RRR (95% CI), revascularization",[6]; [11],61%
same,"Revascularization, %","[6]; 90-day follow-up, n=60 per group",11.7%
same,"Recurrent angina, %","[6]; CCU period, meloxicam + aspirin + heparin vs control aspirin + heparin, n=60 per group",15.0%
same,"ARR %, MI + death + revascularization",[6]; [12],16.7%
same,"ARR %, all revascularization",[6]; [12],15.0%
same,"ARR %, recurrent angina",[6]; [12],20.0%
same,"ARR %, recurrent angina + MI + vascular death",[6]; [12],23.3%
same,"RRR (95% CI), MI + death + revascularization",[6]; [12],62.5 (11-84) %
same,"RRR (95% CI), all revascularization",[6]; [12],60.1%
same,"RRR (95% CI), recurrent angina",[6]; [12],57.1 (14-79) %
same,"RRR (95% CI), recurrent angina + MI + vascular death",[6]; [12],60.8 (23-80) %
same,"ARR %, all revascularization",[6]; [13],15%
same,"ARR %, recurrent angina",[6]; [13],20%
same,"RRR (95% CI), MI + death + revascularization",[6]; [13],62.5%
same,"RRR (95% CI), all revascularization",[6]; [13],60.8%
same,"RRR (95% CI), recurrent angina",[6]; [13],57.1%
same,"RRR (95% CI), recurrent angina + MI + vascular death",[6]; [13],60.8%
same,"All revascularization, %","[6]; CCU period, n=60 per group",10.0%
same,"MI + death + revascularization, % (secondary composite)","[6]; CCU period, n=60 per group",10.0%
same,"MI + death + revascularization, n (secondary composite)","[6]; CCU period, n=60 per group",6 n
same,"Recurrent angina + MI + vascular death, % (primary composite)","[6]; CCU period, n=60 per group",15.0%
same,"Recurrent angina + MI + vascular death, n (primary composite)","[6]; CCU period, n=60 per group",9 n
same,"MI + death + revascularization, % (secondary composite)",[6]; [14],10%
same,"Recurrent angina + MI + vascular death, % (primary composite)",[6]; [14],15%
same,"patients reaching the additional secondary outcome variable (MI, death, revascularization)",[6]; at 30 days,11.7%
same,"patients reaching the primary outcome variable (recurrent angina, MI, or death)",[6]; at 30 days,20.0%
same,improvement of the ARR in recurrent angina,[6]; during the 30-day treatment period,3.3%
same,"decrease of the triple end points (recurrent angina, MI and vascular death or MI, death and coronary revascularization procedures)","[6]; meloxicam with aspirin and heparin, ACS without ST-segment elevation",60%
same,"patients reaching the primary outcome variable (recurrent angina, MI, or death)",[6]; within 48 hours of randomization,1.7%
"CC(=O)Oc1ccccc1C(=O)O [ASA, acetylsalicylic acid]","reduction of combined incidence of cardiovascular death, MI and stroke",[7],25%
same,aggravation of postischemic cardiac dysfunction,[8],aggravates postischemic cardiac dysfunction
